This is an account of results in ChEMBL document CHEMBL2311326, “Synthesis and evaluation of novel sulfenamides as novel anti Methicillin-resistant Staphylococcus aureus agents” (2013).

Converted amounts (≈) assume the structure as drawn. A value given as a limit tells only on which side of the number the result lay.

Holding throughout (type): functional
Assay [1] relates to Staphylococcus aureus. Briefly: Antimicrobial activity against methicillin-resistant Staphylococcus aureus isolate 6-42.
The subject of assay [2] is Staphylococcus aureus. Nature of the assay: Antimicrobial activity against methicillin-resistant Staphylococcus aureus isolate 309-8.
For assay [3], the system named is Staphylococcus aureus. Nature of the assay: Antimicrobial activity against methicillin-resistant Staphylococcus aureus isolate Chaoyang.
The test system of assay [4] is Staphylococcus aureus. Nature of the assay: Antimicrobial activity against methicillin-resistant Staphylococcus aureus isolate 309-7.
A further assay concerns Pseudomonas aeruginosa. Nature of the assay: Antimicrobial activity against Pseudomonas aeruginosa PAO1.
Assay [5] relates to Staphylococcus aureus. Briefly: Antimicrobial activity against methicillin-sensitive Staphylococcus aureus isolate 309-1.
The test system of assay [6] is Staphylococcus aureus. Nature of the assay: Antimicrobial activity against methicillin-resistant Staphylococcus aureus isolate 309-4.
The subject of assay [7] is Staphylococcus aureus. Nature of the assay: Antimicrobial activity against methicillin-resistant Staphylococcus aureus.
A further assay concerns Bacillus subtilis. Briefly: Antimicrobial activity against Bacillus subtilis ATCC 6633.
Assay [8] relates to Staphylococcus aureus. Nature of the assay: Antimicrobial activity against Staphylococcus aureus ATCC 6538.

On to `COC(=O)CC[C@H](NSc1ccc([N+](=O)[O-])cc1)C(=O)OC`, for which the MBC against Staphylococcus aureus [1], against Staphylococcus aureus [2], against Staphylococcus aureus [3], with Staphylococcus aureus [4], in the assay on Staphylococcus aureus [5] and against Staphylococcus aureus [6] was greater than 100 µg/mL throughout. Besides, in the assay with Staphylococcus aureus [8], the MBC was greater than 100 µg/mL. The minimal inhibitory concentration (MIC) against Staphylococcus aureus [1] was 1.56 µg/mL (≈ 4.75 µM); against Staphylococcus aureus [2] it was 3.13 µg/mL (≈ 9.53 µM); with Staphylococcus aureus [3], 1.56 µg/mL (≈ 4.75 µM); against Staphylococcus aureus [4], 3.13 µg/mL (≈ 9.53 µM); against Pseudomonas aeruginosa, greater than 100 µg/mL; in the assay on Staphylococcus aureus [5], 6.25 µg/mL (≈ 19 µM). In addition, the MIC with Staphylococcus aureus [6] amounted to 6.25 µg/mL (≈ 19 µM); with Staphylococcus aureus [7] it was 1.56 µg/mL (≈ 4.75 µM); against Bacillus subtilis, 3.13 µg/mL (≈ 9.53 µM); in the assay with Staphylococcus aureus [8], 6.25 µg/mL (≈ 19 µM).
For `CC(C)OC(=O)[C@H](Cc1c[nH]c2ccccc12)NSc1ccccc1[N+](=O)[O-]`, the MBC with Staphylococcus aureus [1], in the assay on Staphylococcus aureus [2], against Staphylococcus aureus [3], against Staphylococcus aureus [4], in the assay with Staphylococcus aureus [5] and in the assay with Staphylococcus aureus [6] was greater than 100 µg/mL in each case. In the assay with Staphylococcus aureus [8], this compound returned an MBC greater than 100 µg/mL. Moreover, the minimal inhibitory concentration (MIC) with Staphylococcus aureus [1] was 3.13 µg/mL (≈ 7.84 µM); in the assay on Staphylococcus aureus [2], 6.25 µg/mL (≈ 15.6 µM); against Staphylococcus aureus [3] it was 3.13 µg/mL (≈ 7.84 µM); against Staphylococcus aureus [4], 6.25 µg/mL (≈ 15.6 µM); in the assay with Pseudomonas aeruginosa, greater than 100 µg/mL; in the assay on Staphylococcus aureus [5] it was 25 µg/mL (≈ 62.6 µM). For the same compound, the minimum inhibitory concentration (MIC) in the assay on Staphylococcus aureus [6] came out at 25 µg/mL (≈ 62.6 µM); in the assay with Staphylococcus aureus [7], 3.13 µg/mL (≈ 7.84 µM); in the assay with Bacillus subtilis, 12.5 µg/mL (≈ 31.3 µM); in the assay on Staphylococcus aureus [8], 6.25 µg/mL (≈ 15.6 µM).
`COC(=O)[C@H](Cc1c[nH]c2ccccc12)NSc1ccccc1[N+](=O)[O-]`: the MBC against Staphylococcus aureus [1], against Staphylococcus aureus [2], in the assay on Staphylococcus aureus [3], against Staphylococcus aureus [4], in the assay on Staphylococcus aureus [5] and in the assay on Staphylococcus aureus [6] was greater than 100 µg/mL throughout. The compound further had an MBC against Staphylococcus aureus [8] greater than 100 µg/mL. The MIC was 3.13 µg/mL (≈ 8.43 µM) in the assay on Staphylococcus aureus [1]; 25 µg/mL (≈ 67.3 µM) in the assay with Staphylococcus aureus [2]; 3.13 µg/mL (≈ 8.43 µM) in the assay on Staphylococcus aureus [3]; 12.5 µg/mL (≈ 33.7 µM) against Staphylococcus aureus [4]; greater than 100 µg/mL against Pseudomonas aeruginosa; 25 µg/mL (≈ 67.3 µM) in the assay with Staphylococcus aureus [5]. Moreover, the MIC was determined as 25 µg/mL (≈ 67.3 µM) against Staphylococcus aureus [6], 3.13 µg/mL (≈ 8.43 µM) with Staphylococcus aureus [7], 12.5 µg/mL (≈ 33.7 µM) with Bacillus subtilis and 6.25 µg/mL (≈ 16.8 µM) in the assay with Staphylococcus aureus [8].
For `CCOC(=O)[C@H](Cc1c[nH]c2ccccc12)NSc1ccccc1[N+](=O)[O-]`, the MBC in the assay with Staphylococcus aureus [1], against Staphylococcus aureus [2], against Staphylococcus aureus [3], with Staphylococcus aureus [4], against Staphylococcus aureus [5] and against Staphylococcus aureus [6] was greater than 100 µg/mL throughout. Further, the MBC in the assay with Staphylococcus aureus [8] is greater than 100 µg/mL. For the same compound, the MIC was 1.56 µg/mL (≈ 4.05 µM) in the assay on Staphylococcus aureus [1]; 6.25 µg/mL (≈ 16.2 µM) with Staphylococcus aureus [2]; 1.56 µg/mL (≈ 4.05 µM) against Staphylococcus aureus [3]; 6.25 µg/mL (≈ 16.2 µM) against Staphylococcus aureus [4]; greater than 100 µg/mL in the assay with Pseudomonas aeruginosa; 12.5 µg/mL (≈ 32.4 µM) with Staphylococcus aureus [5]. Also, the MIC against Staphylococcus aureus [6] is 12.5 µg/mL (≈ 32.4 µM); against Staphylococcus aureus [7] it was 1.56 µg/mL (≈ 4.05 µM); against Bacillus subtilis, 6.25 µg/mL (≈ 16.2 µM); with Staphylococcus aureus [8], 6.25 µg/mL (≈ 16.2 µM).
For `O=C1C(=O)N(Sc2ccccc2[N+](=O)[O-])c2c(Cl)cccc21`, the MBC with Staphylococcus aureus [1], against Staphylococcus aureus [2], in the assay with Staphylococcus aureus [3], against Staphylococcus aureus [4], against Staphylococcus aureus [5] and against Staphylococcus aureus [6] was greater than 100 µg/mL throughout. The compound further came in with an MBC against Staphylococcus aureus [8] greater than 100 µg/mL. In addition, the MIC is 6.25 µg/mL (≈ 18.7 µM) in the assay on Staphylococcus aureus [1]; 12.5 µg/mL (≈ 37.3 µM) with Staphylococcus aureus [2]; 6.25 µg/mL (≈ 18.7 µM) in the assay on Staphylococcus aureus [3]; 6.25 µg/mL (≈ 18.7 µM) against Staphylococcus aureus [4]; greater than 100 µg/mL with Pseudomonas aeruginosa; 12.5 µg/mL (≈ 37.3 µM) against Staphylococcus aureus [5]. Moreover, the MIC in the assay on Staphylococcus aureus [6] was 12.5 µg/mL (≈ 37.3 µM); in the assay with Staphylococcus aureus [7], 6.25 µg/mL (≈ 18.7 µM); against Bacillus subtilis it was greater than 100 µg/mL; against Staphylococcus aureus [8] it was 12.5 µg/mL (≈ 37.3 µM).

One may read the MBC as the lowest tested concentration that kills the bacteria rather than only halting them. A lower MBC goes with greater bactericidal potency. One may read the MIC as the smallest concentration in the dilution series that meets the test's criterion for growth inhibition. A higher MIC goes with weaker potency.
